From ChEMBL document CHEMBL5154828 (J Med Chem, 2022)

Assays:
[1] = test system: MCF7; test: Antiproliferative activity against human MCF7 cells assessed as inhibition of cell growth measured after 6 days by cell titre glo luminescence assay; conditions: MCF7, 144 h
[2] = biological target: T1, Estrogen receptor (Homo sapiens, UniProt P03372); test: Induction of ERalpha degradation in human MCF7 cells incubated for 24 hrs by Western blot analysis; assay type: cell-based
T1 sequence (P03372 whole entry): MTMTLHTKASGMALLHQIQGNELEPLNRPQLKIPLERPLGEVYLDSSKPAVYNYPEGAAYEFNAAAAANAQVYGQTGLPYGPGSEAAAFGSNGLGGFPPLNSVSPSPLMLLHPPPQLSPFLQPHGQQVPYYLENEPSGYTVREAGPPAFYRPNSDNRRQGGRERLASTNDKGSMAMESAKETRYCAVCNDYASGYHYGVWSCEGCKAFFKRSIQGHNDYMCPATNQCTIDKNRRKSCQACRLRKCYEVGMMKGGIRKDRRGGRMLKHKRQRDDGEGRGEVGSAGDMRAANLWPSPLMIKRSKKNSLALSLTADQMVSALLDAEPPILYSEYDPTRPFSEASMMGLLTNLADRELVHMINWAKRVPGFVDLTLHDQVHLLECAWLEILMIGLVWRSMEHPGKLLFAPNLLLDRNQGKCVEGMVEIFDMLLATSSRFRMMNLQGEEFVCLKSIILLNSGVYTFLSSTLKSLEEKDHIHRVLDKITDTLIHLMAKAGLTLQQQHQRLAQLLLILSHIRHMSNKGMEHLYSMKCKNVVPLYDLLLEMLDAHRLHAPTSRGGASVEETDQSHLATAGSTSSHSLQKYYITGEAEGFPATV

CC(F)(F)c1cc(F)ccc1-c1sc2c(ccc3[nH]ncc32)c1Oc1ccc(OCCN2CC(CF)C2)cc1F
IC50 [1]: 3.3 nM

CC(F)(F)c1cc(Cl)ccc1-c1sc2cc(C(=O)O)ccc2c1Oc1ccc(OCCN2CC(CF)C2)cc1
IC50 [1]: 4.4 nM | EC50 [2]: 2.6 nM

CC(F)(F)c1cc(F)ccc1-c1sc2cc(B(O)O)ccc2c1Oc1ccc(OCCN2CC(CF)C2)cc1
IC50 [1]: 1.9 nM | EC50 [2]: 1.2 nM

CC(F)(F)c1cc(F)ccc1-c1sc2c(ccc3[nH]ncc32)c1Oc1ccc(NC2CN(CCCF)C2)c(C(F)(F)F)c1
IC50 [1]: 6.2 nM

FCC1CN(CCOc2ccc(Oc3c(-c4ccc(OC(F)(F)F)cc4F)sc4c3ccc3[nH]ncc34)cc2)C1
IC50 [1]: 38.5 nM

CC(F)(F)c1cc(F)ccc1-c1sc2c(ccc3[nH]ncc32)c1Oc1ccc(/C=C/CN2CC(CF)C2)cc1
IC50 [1]: 7.9 nM

CC(F)(F)c1cc(F)ccc1-c1sc2c(ccc3[nH]ncc32)c1Oc1ccc(OCCN2CC(CF)C2)cc1
IC50 [1]: 1.1 nM | EC50 [2]: 0.9 nM

CC(F)(F)c1cc(F)ccc1-c1sc2c(ccc3[nH]ncc32)c1Oc1ccc(OCCN2CC(CC#N)C2)cc1
IC50 [1]: 2.4 nM | EC50 [2]: 0.4 nM

CC(F)(F)c1cc(F)ccc1-c1sc2c(ccc3[nH]ncc32)c1Oc1ccc(OC2CN(CCCF)C2)cc1F
IC50 [1]: 7.8 nM

Oc1cccc(-c2sc3c(ccc4[nH]ncc43)c2Oc2ccc(OCCN3CC(CF)C3)cc2)c1
IC50 [1]: > 1000 nM

Cc1cc(Cl)cc(C)c1-c1sc2c(ccc3[nH]ncc32)c1Oc1ccc(OCCN2CC(CF)C2)cc1
IC50 [1]: 29.5 nM

CC(F)(F)c1cc(F)ccc1-c1sc2cc3[nH]ncc3cc2c1Oc1ccc(/C=C/C(=O)O)cc1
IC50 [1]: 483 nM

CC(F)(F)c1cc(Cl)ccc1-c1sc2c(ccc3[nH]ncc32)c1Oc1ccc(N[C@@H]2CCN(CCCF)C2)cc1
IC50 [1]: 0.6 nM | EC50 [2]: 1 nM

FCC1CN(CCOc2ccc(Oc3c(-c4ccc(F)cc4C4CC4)sc4c3ccc3[nH]ncc34)cc2)C1
IC50 [1]: 8.8 nM

CC(F)(F)c1cc(Cl)ccc1-c1sc2c(ccc3[nH]ncc32)c1Oc1ccc(OC2CN(CCCC#N)C2)cc1
IC50 [1]: 81.4 nM

CC(F)(F)c1cc(F)ccc1-c1sc2c(ccc3[nH]ncc32)c1Oc1ccc(/C=C/C(=O)O)cc1
IC50 [1]: 26.6 nM

CC(F)(F)c1cc(Cl)ccc1-c1sc2cc(C(=O)O)ccc2c1Oc1ccc(O[C@@H]2CCN(CCCF)C2)cc1
IC50 [1]: 4.2 nM | EC50 [2]: 1 nM

CC(F)(F)c1cc(F)ccc1-c1sc2cc(B(O)O)ccc2c1Oc1ccc(OCCN2CC(CC#N)C2)cc1
IC50 [1]: 2.7 nM

CC(F)(F)c1cc(F)ccc1-c1sc2c(ccc3[nH]ncc32)c1Oc1ccc(CCN2CC(CF)C2)cc1
IC50 [1]: 14.7 nM

CC(F)(c1cc(F)ccc1-c1sc2c(ccc3[nH]ncc32)c1Oc1ccc(NC2CN(CCCF)C2)cc1)C(F)(F)F (configuration not stated)
IC50 [1]: 1.7 nM | EC50 [2]: 6.6 nM

Cc1cc(C(F)(F)F)ncc1-c1sc2c(ccc3[nH]ncc32)c1Oc1ccc(OCCN2CC(CF)C2)cc1
IC50 [1]: 623 nM

FCC1CN(CCOc2ccc(Oc3c(-c4ccc(C(F)(F)F)cc4F)sc4c3ccc3[nH]ncc34)cc2)C1
IC50 [1]: 148 nM

CC(F)(F)c1cc(F)ccc1-c1sc2cc(B(O)O)ccc2c1Oc1ccc(/C=C/C(=O)O)cc1
IC50 [1]: 23.9 nM

CC(F)(F)c1cc(F)ccc1-c1sc2c(ccc3[nH]ncc32)c1Oc1c(F)cc(OCCN2CC(CF)C2)cc1F
IC50 [1]: 15.1 nM

CC(F)(F)c1cc(F)ccc1-c1sc2cc(B(O)O)ccc2c1Oc1ccc(OCCN2CCC(F)CC2)cc1
IC50 [1]: 19.4 nM

CC(C)(c1cc(F)ccc1-c1sc2c(ccc3[nH]ncc32)c1Oc1ccc(NC2CN(CCCF)C2)cc1)C(F)(F)F
IC50 [1]: 5.1 nM

FCCCN1CC(Oc2ccc(Oc3c(-c4ccc(F)cc4C4(F)CC4)sc4c3ccc3[nH]ncc34)cc2)C1
IC50 [1]: 5.3 nM

Cc1cc(F)cc(C)c1-c1sc2c(ccc3[nH]ncc32)c1Oc1ccc(OCCN2CC(CF)C2)cc1
IC50 [1]: 27.3 nM

CC(F)(F)c1cc(Cl)ccc1-c1sc2c(ccc3[nH]ncc32)c1Oc1ccc(S(=O)(=O)C2CN(CCCF)C2)cc1
IC50 [1]: 33.9 nM

CC(F)(F)c1cc(F)ccc1-c1sc2c(ccc3[nH]ncc32)c1-c1ccc(OCCN2CC(CF)C2)cc1
IC50 [1]: > 1000 nM
